Test results as given in publication PMC4150738 (Analytica chimica acta, 2014).
Where two headings read alike, the source gives them in different places.

Columns and labels:
[1] = for change of plasma concentration without the deconjugation step (hydrolysis): rat plasma after 0.5 mg kg-1 MDPV ip or sc, with vs without hydrolysis; for form present in rat plasma: rat plasma after MDPV, concluded from hydrolysis comparison; for plasma concentration, Without hydrolysis / plasma concentration, Hydrolysis / plasma concentration range after intraperitoneal dosing / plasma concentration range after the subcutaneous dose: rat plasma; for plasma concentration, Without hydrolysis / plasma concentration, Hydrolysis: LOQ 0.25 μg L^−1; for plasma concentration, Hydrolysis: with hydrolysis; for plasma concentration range after intraperitoneal dosing: 0.5 mg kg^−1 MDPV intraperitoneal; for plasma concentration range after intraperitoneal dosing / plasma concentration range after the subcutaneous dose: samples 10-480 min after dosing; for plasma concentration range after the subcutaneous dose: 0.5 mg kg^−1 MDPV subcutaneous
[2] = Short-term stability in fortified plasma; type: physicochemical, human
[3] = 0.5 mg kg-1 MDPV ip, 0 min (before dosing)
[4] = 0.5 mg kg-1 MDPV sc, 0 min (before dosing)
[5] = High QC 750 μg L^−1, n=5, vs freshly fortified
[6] = Low QC 0.75 μg L^−1, n=5, vs freshly fortified
[7] = Medium QC 25 μg L^−1, n=5, vs freshly fortified

| Compound | change of plasma concentration without the deconjugation step (hydrolysis) [1] | form present in rat plasma [1] | plasma concentration, Without hydrolysis [1, 3] | plasma concentration, Hydrolysis ([1]; 0.5 mg kg-1 MDPV ip, 10 min) | plasma concentration, Without hydrolysis ([1]; 0.5 mg kg-1 MDPV ip, 10 min) | plasma concentration, Hydrolysis ([1]; 0.5 mg kg-1 MDPV ip, 20 min) | plasma concentration, Without hydrolysis ([1]; 0.5 mg kg-1 MDPV ip, 20 min) | plasma concentration, Hydrolysis ([1]; 0.5 mg kg-1 MDPV ip, 30 min) | plasma concentration, Without hydrolysis ([1]; 0.5 mg kg-1 MDPV ip, 30 min) | plasma concentration, Hydrolysis ([1]; 0.5 mg kg-1 MDPV ip, 60 min) | plasma concentration, Without hydrolysis ([1]; 0.5 mg kg-1 MDPV ip, 60 min) | plasma concentration, Hydrolysis ([1]; 0.5 mg kg-1 MDPV ip, 120 min) | plasma concentration, Without hydrolysis ([1]; 0.5 mg kg-1 MDPV ip, 120 min) | plasma concentration, Hydrolysis ([1]; 0.5 mg kg-1 MDPV ip, 240 min) | plasma concentration, Without hydrolysis ([1]; 0.5 mg kg-1 MDPV ip, 240 min) | plasma concentration, Hydrolysis ([1]; 0.5 mg kg-1 MDPV ip, 480 min) | plasma concentration, Without hydrolysis ([1]; 0.5 mg kg-1 MDPV ip, 480 min) | plasma concentration, Without hydrolysis [1, 4] | plasma concentration, Hydrolysis ([1]; 0.5 mg kg-1 MDPV sc, 10 min) | plasma concentration, Without hydrolysis ([1]; 0.5 mg kg-1 MDPV sc, 10 min) | other results |
| --- | --- | --- | --- | --- | --- | --- | --- | --- | --- | --- | --- | --- | --- | --- | --- | --- | --- | --- | --- | --- | --- |
| CCCC(C(=O)c1ccc(O)c(O)c1)N1CCCC1 (centres unmarked) [3,4-catechol-PV, 3,4-dihydroxypyrovalerone] | greatly decreased | primarily present as the conjugated forms | <LOQ | 4.3 ng/mL | <LOQ | 5.1 ng/mL | <LOQ | 4.9 ng/mL | <LOQ | 3.7 ng/mL | <LOQ | 9.6 ng/mL | <LOQ | 11.8 ng/mL | <LOQ | 5.3 ng/mL | <LOQ | <LOQ | 1.3 ng/mL | <LOQ | plasma concentration, Hydrolysis ([1]; 0.5 mg kg-1 MDPV sc, 20 min): 2.7 ng/mL; plasma concentration, Without hydrolysis ([1]; 0.5 mg kg-1 MDPV sc, 20 min): <LOQ; plasma concentration, Hydrolysis ([1]; 0.5 mg kg-1 MDPV sc, 30 min): 3.1 ng/mL; plasma concentration, Without hydrolysis ([1]; 0.5 mg kg-1 MDPV sc, 30 min): <LOQ; plasma concentration, Hydrolysis ([1]; 0.5 mg kg-1 MDPV sc, 60 min): 3.8 ng/mL; plasma concentration, Without hydrolysis ([1]; 0.5 mg kg-1 MDPV sc, 60 min): <LOQ; plasma concentration, Hydrolysis ([1]; 0.5 mg kg-1 MDPV sc, 120 min): 9.4 ng/mL; plasma concentration, Without hydrolysis ([1]; 0.5 mg kg-1 MDPV sc, 120 min): <LOQ; plasma concentration, Hydrolysis ([1]; 0.5 mg kg-1 MDPV sc, 240 min): 9.8 ng/mL; plasma concentration, Without hydrolysis ([1]; 0.5 mg kg-1 MDPV sc, 240 min): <LOQ; plasma concentration, Hydrolysis ([1]; 0.5 mg kg-1 MDPV sc, 480 min): 3.6 ng/mL; plasma concentration, Without hydrolysis ([1]; 0.5 mg kg-1 MDPV sc, 480 min): <LOQ; plasma concentration range after intraperitoneal dosing [1]: 3.7 to 11.8 ng/mL; plasma concentration range after the subcutaneous dose [1]: 1.3 to 9.8 ng/mL; Stability (% difference) 3 freeze-thaw cycles [2, 5]: −3.6 % difference; Stability (% difference) 72h at 4°C [2, 5]: −3 % difference; Stability (% difference) 3 freeze-thaw cycles [2, 6]: −3.2 % difference; Stability (% difference) 72h at 4°C [2, 6]: −7.3 % difference; Stability (% difference) 3 freeze-thaw cycles [2, 7]: −2.6 % difference; Stability (% difference) 72h at 4°C [2, 7]: 6.5 % difference |
| CCCC(C(=O)c1ccc(O)c(OC)c1)N1CCCC1 (centres unmarked) [4-OH-3-MeO-PV, 4-hydroxy-3-methoxypyrovalerone] | greatly decreased | primarily present as the conjugated forms | <LOQ | 9.3 ng/mL | 0.9 ng/mL | 11.8 ng/mL | 0.7 ng/mL | 12.3 ng/mL | 0.7 ng/mL | 14.1 ng/mL | <LOQ | 68.9 ng/mL | 0.5 ng/mL | 84.7 ng/mL | 0.5 ng/mL | 23.6 ng/mL | <LOQ | <LOQ | 3.2 ng/mL | 1.1 ng/mL | plasma concentration, Hydrolysis ([1]; 0.5 mg kg-1 MDPV sc, 20 min): 6.1 ng/mL; plasma concentration, Without hydrolysis ([1]; 0.5 mg kg-1 MDPV sc, 20 min): 1.2 ng/mL; plasma concentration, Hydrolysis ([1]; 0.5 mg kg-1 MDPV sc, 30 min): 6.7 ng/mL; plasma concentration, Without hydrolysis ([1]; 0.5 mg kg-1 MDPV sc, 30 min): 1.1 ng/mL; plasma concentration, Hydrolysis ([1]; 0.5 mg kg-1 MDPV sc, 60 min): 11 ng/mL; plasma concentration, Without hydrolysis ([1]; 0.5 mg kg-1 MDPV sc, 60 min): 0.9 ng/mL; plasma concentration, Hydrolysis ([1]; 0.5 mg kg-1 MDPV sc, 120 min): 44.7 ng/mL; plasma concentration, Without hydrolysis ([1]; 0.5 mg kg-1 MDPV sc, 120 min): 0.7 ng/mL; plasma concentration, Hydrolysis ([1]; 0.5 mg kg-1 MDPV sc, 240 min): 54.4 ng/mL; plasma concentration, Without hydrolysis ([1]; 0.5 mg kg-1 MDPV sc, 240 min): 0.4 ng/mL; plasma concentration, Hydrolysis ([1]; 0.5 mg kg-1 MDPV sc, 480 min): 11 ng/mL; plasma concentration, Without hydrolysis ([1]; 0.5 mg kg-1 MDPV sc, 480 min): <LOQ; plasma concentration range after intraperitoneal dosing [1]: 9.3 to 84.7 ng/mL; plasma concentration range after the subcutaneous dose [1]: 3.2 to 54.4 ng/mL; Stability (% difference) 3 freeze-thaw cycles [2, 5]: −0.5 % difference; Stability (% difference) 72h at 4°C [2, 5]: −1.5 % difference; Stability (% difference) 3 freeze-thaw cycles [2, 6]: 3.5 % difference; Stability (% difference) 72h at 4°C [2, 6]: 3.9 % difference; Stability (% difference) 3 freeze-thaw cycles [2, 7]: −0.5 % difference; Stability (% difference) 72h at 4°C [2, 7]: 6 % difference |
